Substitutions are numbered along the chain they refer to.

In assay [1] the test system is human breast cancer cells BT474. As to the kind of experiment: In vivo antitumor effect of anti-CAPRIN-1 antibody and etoposide in BT474 cancer-bearing mice (Comparative Example 1). More on the design: species or system NOD-SCID mice. The conditions noted are these: etoposide alone, four times, day 55 after bearing cancer. Here is the method: Next, an in vivo antitumor effect in a cancer-bearing mouse by a combined use of the anti-CAPRIN-1 antibody (anti-CAPRIN-1 humanized antibody #1) produced in Example 1 and etoposide (a topoisomerase inhibitor (topoisomerase II inhibitor) other than topotecan) was evaluated.
Specifically, the antitumor effect of the combination of the anti-CAPRIN-1 antibody and etoposide was studied using NOD-SCID mice in which human-derived cancer cells expressing CAPRIN-1 protein were subcutaneously transplanted. Human breast cancer cells BT474 were subcutaneously transplanted at 2×10^7 cells per mouse as a mixture with Matrigel (Sigma) and allowed to grow until a tumor became approximately 190 to 192 mm^3 to prepare cancer-bearing mice. […]
For a comparative control group, the same dose of the same anti-CAPRIN-1 antibody as above was administered once a week to cancer-bearing mice. […] After the start of administration, the sizes of cancers in the cancer-bearing mice were measured over time using calipers. The tumor volume of each individual was calculated according to a standard method using a calculation formula: (Length of the major axis of the tumor)×(Length of the minor axis of the tumor)^2×0.5, and the average of the treated group was calculated.

For assay [2] the following is noted: platinum-insensitive patient, cited from earlier work.
In assay [3] the test system is human breast cancer cells BT474. The assay can be described thus: In vivo antitumor effect of anti-CAPRIN-1 antibody and topotecan in BT474 cancer-bearing mice. More on the design: species or system NOD-SCID mice. The conditions noted are these: day 56 after bearing cancer; for tumor volume, assuming that the tumor volume of the negative control was 100%: topotecan alone, four times. The procedure:
An in vivo antitumor effect in a cancer-bearing mouse by a combined use of the anti-CAPRIN-1 antibody (anti-CAPRIN-1 humanized antibody #1) produced in Example 1 and topotecan was evaluated.
Specifically, the antitumor effect of the combined use of the anti-CAPRIN-1 antibody and topotecan according to the present invention was studied using NOD-SCID mice in which human-derived cancer cells expressing CAPRIN-1 protein were subcutaneously transplanted. Human breast cancer cells BT474 were subcutaneously transplanted at 2×10^7 cells per mouse as a mixture with Matrigel (Sigma) and allowed to grow until a tumor became approximately 154 to 155 mm^3 to prepare cancer-bearing mice. The cancer cells BT474 express CAPRIN-1 protein on cell membrane surfaces, and the anti-CAPRIN-1 antibodies produced in Example 1 were confirmed to react with a portion of CAPRIN-1 present on the cell membrane surfaces. Each anti-CAPRIN-1 antibody produced in Example 1 was administered at 10 mg/kg once a week, four times in total, to the tail veins of eight cancer-bearing mice described above. To the same mice, a low dose (3 mg/kg) or a high dose (10 mg/kg) of topotecan was administered once every four days, four times in total.
For a comparative control group, the same dose of the same anti-CAPRIN-1 antibody as above was administered once a week to cancer-bearing mice. Furthermore, for another comparative control group, a low dose (3 mg/kg) or a high dose (10 mg/kg) of topotecan was administered to other cancer-bearing mouse individuals at the same administration intervals. Cancer-bearing mice in a non-treatment group were used as negative controls. After the start of administration, the sizes of cancers in the cancer-bearing mice were measured over time using calipers. The tumor volume of each individual was calculated according to a standard method using a calculation formula: (Length of the major axis of the tumor)×(Length of the minor axis of the tumor)^2×0.5, and the average of the treated group was calculated.

For assay [4], the target named is T1, human CAPRIN-1 protein expressed on cell membrane surfaces of human cancer cells (human, UniProt Q14444 2-709).
T1 construct: whole, on cells; only a portion of CAPRIN-1 is said to be on the membrane surface
T1 sequence (looked up): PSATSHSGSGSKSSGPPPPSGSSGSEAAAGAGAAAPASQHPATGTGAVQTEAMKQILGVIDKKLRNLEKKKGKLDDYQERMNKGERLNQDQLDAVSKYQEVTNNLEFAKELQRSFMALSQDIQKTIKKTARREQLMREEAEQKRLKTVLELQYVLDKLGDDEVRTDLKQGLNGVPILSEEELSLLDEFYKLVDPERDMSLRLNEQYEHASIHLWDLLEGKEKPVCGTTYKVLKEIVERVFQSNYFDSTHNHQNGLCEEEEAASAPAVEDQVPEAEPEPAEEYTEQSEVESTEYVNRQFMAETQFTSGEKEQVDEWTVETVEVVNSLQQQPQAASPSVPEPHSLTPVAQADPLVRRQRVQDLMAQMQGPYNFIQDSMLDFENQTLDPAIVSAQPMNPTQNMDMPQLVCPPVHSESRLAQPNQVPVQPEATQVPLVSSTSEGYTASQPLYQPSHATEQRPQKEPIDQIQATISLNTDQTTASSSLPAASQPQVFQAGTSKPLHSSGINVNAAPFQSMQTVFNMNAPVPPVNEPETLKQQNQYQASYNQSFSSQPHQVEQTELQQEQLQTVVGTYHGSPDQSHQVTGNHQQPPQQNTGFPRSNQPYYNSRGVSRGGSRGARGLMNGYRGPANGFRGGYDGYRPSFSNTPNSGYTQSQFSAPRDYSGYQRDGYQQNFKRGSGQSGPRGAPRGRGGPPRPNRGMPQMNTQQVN
As to the kind of experiment: flow cytometry on cancer cells expressing CAPRIN-1.

Consider `COc1cc([C@@H]2c3cc4c(cc3[C@@H](O[C@@H]3O[C@@H]5CO[C@@H](C)O[C@H]5[C@H](O)[C@H]3O)[C@H]3COC(=O)[C@H]23)OCO4)cc(OC)c1O` [etoposide], for which the “tumor volume, assuming that the tumor volume of the negative control was 100%” value was 79% in assay [1] (high dose 15 mg/kg once every four days) and 92% in assay [1] (low dose 5 mg/kg once every four days).
On to bevacizumab, for which the PFS in assay [2] (bevacizumab combined with a chemotherapeutic versus monochemotherapy) is given as 6.7 months. Further, in assay [2] (bevacizumab combined with a chemotherapeutic), the “OS compared with monochemotherapy” value was “no significant difference”.
With `CC[C@@]1(O)C(=O)OCc2c1cc1n(c2=O)Cc2cc3c(CN(C)C)c(O)ccc3nc2-1` [topotecan], the “tumor volume compared to that at the start of the administration” value in assay [3] (antibody 10 mg/kg, topotecan low (3 mg/kg) and high (10 mg/kg) dose) is listed as “increased”. For the same molecule, the figures for the “tumor volume, assuming that the tumor volume of the negative control was 100%” value in assay [3] (high dose 10 mg/kg once every four days) and in assay [3] (low dose 3 mg/kg once every four days) were 16% and 33%, respectively.

B1: anti-CAPRIN-1 antibody (c) (antibody, V domains shown)
VH: AVTLDESGGGLQTPGGGLSLVCKASGFTFSSFDMGWVRQAPGKGLEFVAQINDAGSRTWYATAVKGRATISRDNGQTTVRLQLNNLRAEDTGTYYCTRGSGYVGAGAIDAWGHGTEVIVS
VL: AALTQPSSVSANPGETVKITCSGGSGYYGWYQQQKSPGSAPVTVIYQNDKRPSDIPSRFSGSGSGSTNTLTITGVQAEDEAVYFCGRYDSTDSGIFGAGTTLTVL
As to B1, the binding result in assay [4] is listed as “binds”.

B2: anti-CAPRIN-1 antibody (a) (antibody, V domains shown)
VH: AVTLDESGGGLQMSRGGLSLVCKASGFDFSSYQMNWIRQAPGKGLEFVAAINKFGNSTGHGAAVKGRVTISRDNGQSTVRLQLNNLRAEDTAIYFCTKHAYGYCGSGTWCAAGEIDAWGHGTEVIVSS
VL: QAASTQPSSVSANPGETVEITCSGGGSYSYGWFQQKSPGSAPVTVIYYNNKRPSDIPSRFSGSKSGSTGTLTITGVQADDEAVYYCGSGDSTDTAVFGAGTTLTVLG
For the molecule B2, the binding result in assay [4] is “binds”.

B3: anti-CAPRIN-1 antibody (ai) (antibody, V domains shown)
VH: EVQLVESGGGLVQPGGSLRLSCAASGFSLSSHSLGWVRQAPGKGLEWIGDIRSGGSAYYANWAKGRFTISRDNSKNTLYLQMNSLRAEDTAVYFCTRTNGPSDLTNRLDLWGQGTLVTVSS
VL: EIVLTQSPSSLSASVGDRVTINCQASQSLYNNENLAWFQQKPGKVPKRLIYGASTLASGVSSRFSGSGSGTEFTLTISNLQPEDFATYYCLGEFSCGSADCFAFGGGTKVEIK
Turning to B3, the binding result in assay [4] is “binds”.

B4: anti-CAPRIN-1 antibody (ak) (antibody, V domains shown)
VH: B3 VH
VL: B3 VL with I2Q, T87I
Take B4: the binding result in assay [4] was “binds”.

B5: anti-CAPRIN-1 antibody (aj) (antibody, V domains shown)
VH: B3 VH with F94Y
VL: B3 VL
For B5, the binding result in assay [4] is listed as “binds”.

The values above are taken from patent US20250228937A1, “MEDICAMENT FOR TREATMENT AND/OR PREVENTION OF CANCER” (TORAY INDUSTRIES, INC., priority 2021, published 2025).
